These are literature values, as cited in patent US20170252421A1 (priority 2014, published 2017).

As for `CN(C)C(=N)N=C(N)N` [metformin, Metformin], for the setting “oral metformin”, the “patients discontinuing the therapy due to the side effects” value is “up to 5%” and the “patients experiencing gastrointestinal side effects” value is “Up to 20%”. Moreover, the “patients developing vitamin B12 deficiency” value (patients taking metformin) is reported as 77%. Moreover, for the setting “treating insulin resistance”, the “reduction of morbidity and mortality rates” value is on record as “about 30%”.
